# Laboratory results published in patent US20180194762A1 (Pharmacyclics LLC, priority 2017, published 2018).
# Assays:
# Assay type in all cases: biochemical
# [1] = molecular target: T1, Btk (Homo sapiens, UniProt Q06187); assay: Btk in vitro inhibitory activity (one of Method A TR-FRET, Method B electrophoretic mobility shift, Method C radiometric filter binding); conditions: wild-type Btk; read-out: Btk-WT IC50
# T1 construct: purified from insect cells as a full-length construct containing a N-terminal 6X-His tag; His6 (N); made in house; host or cells: insect cells (Method C)
# T1 sequence (Q06187 whole entry): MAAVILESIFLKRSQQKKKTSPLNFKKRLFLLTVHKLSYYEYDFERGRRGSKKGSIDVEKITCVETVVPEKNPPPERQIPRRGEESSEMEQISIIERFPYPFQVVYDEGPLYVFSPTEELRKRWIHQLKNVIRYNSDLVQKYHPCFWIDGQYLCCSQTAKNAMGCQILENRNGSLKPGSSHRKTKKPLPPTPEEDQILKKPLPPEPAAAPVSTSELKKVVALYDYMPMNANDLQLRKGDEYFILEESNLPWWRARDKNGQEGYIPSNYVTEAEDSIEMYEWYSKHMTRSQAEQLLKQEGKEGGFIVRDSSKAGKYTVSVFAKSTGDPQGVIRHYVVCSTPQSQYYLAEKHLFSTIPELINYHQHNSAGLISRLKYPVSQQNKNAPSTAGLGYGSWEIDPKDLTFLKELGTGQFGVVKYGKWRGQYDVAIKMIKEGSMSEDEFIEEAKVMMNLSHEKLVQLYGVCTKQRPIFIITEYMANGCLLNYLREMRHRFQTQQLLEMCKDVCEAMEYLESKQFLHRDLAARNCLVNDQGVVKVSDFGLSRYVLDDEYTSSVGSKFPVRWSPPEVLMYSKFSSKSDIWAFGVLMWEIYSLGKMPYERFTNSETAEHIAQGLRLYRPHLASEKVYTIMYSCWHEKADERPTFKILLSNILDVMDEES
# How it was run: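 Three alternative formats were used. A radiometric filter-binding read used 8 nM full-length His-BTK with 0.2 mg/mL poly(Glu-Tyr) 4:1 (C); microfluidic separation of 1 μM FAM-peptide by 1 nM BTK gave IC50 from 12-point curves (B); TR-FRET at Km ATP, 0.5 nM Btk, gave Ki(app)-derived IC50 (A).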
# [2] = molecular target: T2, TEC (Homo sapiens, UniProt P42680); assay: Inhibition of a panel of kinases (in vitro HotSpot kinase assay, 33P-ATP, 1 μM ATP); conditions: for IC50: HotSpot kinase assay, 1 μM ATP; for TEC/Btk: ratio of TEC IC50 to Btk IC50 (selectivity)
# T2 sequence (P42680 1-631): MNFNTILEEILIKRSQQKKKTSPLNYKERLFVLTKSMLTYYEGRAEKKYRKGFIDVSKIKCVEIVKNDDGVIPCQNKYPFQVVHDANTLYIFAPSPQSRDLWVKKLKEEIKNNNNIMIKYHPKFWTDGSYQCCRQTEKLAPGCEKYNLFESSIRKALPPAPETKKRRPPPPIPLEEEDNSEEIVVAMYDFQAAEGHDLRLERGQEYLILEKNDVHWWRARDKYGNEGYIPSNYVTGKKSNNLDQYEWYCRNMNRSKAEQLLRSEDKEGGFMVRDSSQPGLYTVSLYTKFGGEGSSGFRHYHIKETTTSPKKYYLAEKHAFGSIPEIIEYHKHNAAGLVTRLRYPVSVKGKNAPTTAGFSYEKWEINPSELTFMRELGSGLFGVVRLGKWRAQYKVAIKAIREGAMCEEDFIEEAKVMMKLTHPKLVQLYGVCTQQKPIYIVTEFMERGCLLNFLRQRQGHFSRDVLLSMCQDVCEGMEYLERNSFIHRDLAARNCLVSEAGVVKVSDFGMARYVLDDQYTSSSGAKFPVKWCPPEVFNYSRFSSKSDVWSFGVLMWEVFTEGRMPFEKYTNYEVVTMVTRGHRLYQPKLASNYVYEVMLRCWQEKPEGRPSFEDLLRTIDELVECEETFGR
# How it was run: (§1)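 At 1 μM ATP spiked with 33P-ATP, substrate phosphorylation by the purified enzymes gives the extent of inhibition.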
# [3] = molecular target: T3, panel of kinases (Homo sapiens, UniProt P51813); assay: Inhibition of a panel of kinases (in vitro HotSpot kinase assay, 33P-ATP, 1 μM ATP), other kinases; conditions: BMX wild-type, read-out: BMX-WT IC50
# T3 sequence (P51813 1-675): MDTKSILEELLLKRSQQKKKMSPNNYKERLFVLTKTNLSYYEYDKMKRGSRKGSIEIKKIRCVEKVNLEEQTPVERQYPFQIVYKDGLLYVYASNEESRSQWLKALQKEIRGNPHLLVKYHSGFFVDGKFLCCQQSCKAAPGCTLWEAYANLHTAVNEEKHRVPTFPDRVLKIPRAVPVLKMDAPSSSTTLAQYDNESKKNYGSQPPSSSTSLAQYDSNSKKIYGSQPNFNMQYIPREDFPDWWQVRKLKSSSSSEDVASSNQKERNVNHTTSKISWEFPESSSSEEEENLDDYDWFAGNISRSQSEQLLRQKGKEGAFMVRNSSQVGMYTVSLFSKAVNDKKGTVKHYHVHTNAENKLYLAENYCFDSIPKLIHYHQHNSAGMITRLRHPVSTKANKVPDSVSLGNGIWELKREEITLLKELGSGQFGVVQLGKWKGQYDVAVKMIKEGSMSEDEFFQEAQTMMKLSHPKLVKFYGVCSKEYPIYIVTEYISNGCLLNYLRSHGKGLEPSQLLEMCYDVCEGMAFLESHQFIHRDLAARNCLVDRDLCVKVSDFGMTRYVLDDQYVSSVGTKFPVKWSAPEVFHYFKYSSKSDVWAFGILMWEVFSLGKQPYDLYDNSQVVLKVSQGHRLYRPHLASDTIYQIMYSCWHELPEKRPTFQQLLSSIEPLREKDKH
# How it was run: as §1
SMILES,IC50 [1] [nM],IC50 [2] [nM],TEC/Btk [2],IC50 [3] [nM]
"CN1CCCN([C@@H]2CCN(c3n[nH]c4nccc(-c5ccc(CNC(=O)c6nc(C(C)(C)C)no6)c(F)c5)c34)C2)C1=O [Example 241, 3-tert-butyl-N-[(2-fluoro-4-{3-[(3R)-3-(3-methyl-2-oxo-1,3-diazinan-1-yl)pyrrolidin-1-yl]-1H-pyrazolo[3,4-b]pyridin-4-yl}phenyl)methyl]-1,2,4-oxadiazole-5-carboxamide]",4.73,5560,1175,5010
"C[C@@H](NC(=O)c1nc(C(C)(C)C)no1)c1ccc(-c2ccnc3[nH]nc(C4=CCCN(C(=O)N(C)C)C4)c23)cc1 [Example 243, 5-[4-(4-{(1R)-1-[(3-tert-butyl-1,2,4-oxadiazole-5-carbonyl)amino]ethyl}phenyl)-1H-pyrazolo[3,4-b]pyridin-3-yl]-N,N-dimethyl-3,6-dihydropyridine-1(2H)-carboxamide]",4.39,5880,1339,4450
"C[C@@H](NC(=O)c1nc(C(C)(C)C)no1)c1ccc(-c2ccnc3[nH]nc(C4CCN(C(=O)N(C)C)CC4)c23)cc1 [Example 244, 4-[4-(4-{(1R)-1-[(3-tert-butyl-1,2,4-oxadiazole-5-carbonyl)amino]ethyl}phenyl)-1H-pyrazolo[3,4-b]pyridin-3-yl]-N,N-dimethylpiperidine-1-carboxamide]",1.63,9550,5859,5870
"CC(C)(C)c1nc(C(=O)NCc2ccc(-c3ccnc4[nH]nc(N5CCC[C@H](C(=O)O)C5)c34)cc2F)no1 [Example 252, (3S)-1-[4-(4-{[(5-tert-butyl-1,2,4-oxadiazole-3-carbonyl)amino]methyl}-3-fluorophenyl)-1H-pyrazolo[3,4-b]pyridin-3-yl]piperidine-3-carboxylic acid]",0.511,386,755,529
"CC(C)(C)c1noc(C(=O)NCc2ccc(-c3ccnc4[nH]nc(C5CC5)c34)cc2F)n1 [Example 255, 3-tert-butyl-N-{[4-(3-cyclopropyl-1H-pyrazolo[3,4-b]pyridin-4-yl)-2-fluorophenyl]methyl}-1,2,4-oxadiazole-5-carboxamide]",1.26,1630,1294,1360
"C=CC(=O)N1CC[C@@H](Nc2n[nH]c3nccc(-c4cccc(NC(=O)c5ccc(C(C)(C)C)cc5)c4)c23)C1 [Example 263, 4-tert-butyl-N-[3-(3-{[(3R)-1-(prop-2-enoyl)pyrrolidin-3-yl]amino}-1H-pyrazolo[3,4-b]pyridin-4-yl)phenyl]benzamide]",11.6,1070,092,440
"C=CC(=O)N1CC[C@@H](Nc2n[nH]c3nccc(-c4cccc(NC(=O)c5noc(C(C)(C)C)n5)c4)c23)C1 [Example 265, 5-tert-butyl-N-[3-(3-{[(3R)-1-(prop-2-enoyl)pyrrolidin-3-yl]amino}-1H-pyrazolo[3,4-b]pyridin-4-yl)phenyl]-1,2,4-oxadiazole-3-carboxamide]",200,2780,014,875
"C=CC(=O)N1CC[C@@H](Nc2n[nH]c3nccc(-c4cccc(NC(=O)c5noc(C(C)(C)C)n5)c4C)c23)C1 [Example 267, 5-tert-butyl-N-[2-methyl-3-(3-{[(3R)-1-(prop-2-enoyl)pyrrolidin-3-yl]amino}-1H-pyrazolo[3,4-b]pyridin-4-yl)phenyl]-1,2,4-oxadiazole-3-carboxamide]",164,901,005,553
"C=CC(=O)N1CCC[C@@H](Nc2n[nH]c3nccc(-c4ccc(C5(NC(=O)c6noc(C(C)(C)C)n6)CC5)cc4)c23)C1 [Example 270, 5-tert-butyl-N-{1-[4-(3-{[(3R)-1-(prop-2-enoyl)piperidin-3-yl]amino}-1H-pyrazolo[3,4-b]pyridin-4-yl)phenyl]cyclopropyl}-1,2,4-oxadiazole-3-carboxamide]",0.792,613,774,312
"C=CC(=O)N1CC[C@@H](Oc2n[nH]c3nccc(-c4ccc(CNC(=O)c5noc(C(C)(C)C)n5)c(F)c4)c23)C1 [Example 272, 5-tert-butyl-N-{[2-fluoro-4-(3-{[(3R)-1-(prop-2-enoyl)pyrrolidin-3-yl]oxy}-1H-pyrazolo[3,4-b]pyridin-4-yl)phenyl]methyl}-1,2,4-oxadiazole-3-carboxamide]",0.0732,18.9,258,39.2

# The remaining lines, values ahead:
IC50 [1] [nM],IC50 [2] [nM],TEC/Btk [2],IC50 [3] [nM],SMILES
10.1,3880,384,3780,"C[C@H]1CC[C@@H](Nc2n[nH]c3nccc(-c4ccc(CN5CCn6c(cc7c6CC(C)(C)C7)C5=O)c(F)c4)c23)CN1C(=O)N(C)C [Example 239, (2S,5R)-5-[(4-{4-[(7,7-dimethyl-1-oxo-1,3,4,6,7,8-hexahydro-2H-cyclopenta[4,5]pyrrolo[1,2-a]pyrazin-2-yl)methyl]-3-fluorophenyl}-1H-pyrazolo[3,4-b]pyridin-3-yl)amino]-N,N,2-trimethylpiperidine-1-carboxamide]"
5.5,5030,915,387,"C[C@H]1CC[C@@H](Nc2n[nH]c3nccc(-c4ccc(CN5CCn6c(cc7c6CCCC7)C5=O)c(F)c4)c23)CN1C(=O)N(C)C [Example 240, (2S,5R)-5-[(4-{3-fluoro-4-[(1-oxo-3,4,6,7,8,9-hexahydropyrazino[1,2-a]indol-2(1H)-yl)methyl]phenyl}-1H-pyrazolo[3,4-b]pyridin-3-yl)amino]-N,N,2-trimethylpiperidine-1-carboxamide]"
11.7,6920,591,8370,"CN1CCCN([C@@H]2CCN(c3n[nH]c4nccc(-c5ccc(CNC(=O)c6noc(C(C)(C)C)n6)c(F)c5)c34)C2)C1=O [Example 250, 5-tert-butyl-N-[(2-fluoro-4-{3-[(3R)-3-(3-methyl-2-oxo-1,3-diazinan-1-yl)pyrrolidin-1-yl]-1H-pyrazolo[3,4-b]pyridin-4-yl}phenyl)methyl]-1,2,4-oxadiazole-3-carboxamide]"
8.35,3590,430,5440,"C[C@H]1CC[C@@H](Nc2n[nH]c3nccc(-c4ccc(CNC(=O)c5noc(C(C)(C)C)n5)cc4)c23)CN1C(=O)N(C)C [Example 256, (2S,5R)-5-{[4-(4-{[(5-tert-butyl-1,2,4-oxadiazole-3-carbonyl)amino]methyl}phenyl)-1H-pyrazolo[3,4-b]pyridin-3-yl]amino}-N,N,2-trimethylpiperidine-1-carboxamide]"
10.1,5070,502,3960,"CC(C)(C)c1nc(C(=O)NCc2ccc(-c3ccnc4[nH]nc(NC5CCCC5)c34)cc2F)no1 [Example 257, 5-tert-butyl-N-({4-[3-(cyclopentylamino)-1H-pyrazolo[3,4-b]pyridin-4-yl]-2-fluorophenyl}methyl)-1,2,4-oxadiazole-3-carboxamide]"
